Assay results: PubChem BioAssay AID652053 (Broad Institute, 2013)

Test system: Huh7 psiCHECK-miR122 Renilla luciferase reporter, 48 h
Test: suppression of miR-122 activity, Renilla luciferase sensor – cell-based, Huh7 psiCHECK-miR122, cherry-pick, dose response (AID 652053)

`COc1ccc(OC)c(S(=O)(=O)N/N=C\c2ccc3c(c2)OCO3)c1` was tested, and the AC40 was 0.508 µM.
Compound `Cc1ccc(-c2nnc(Nc3ccccc3)c3ccccc23)cc1S(=O)(=O)NCC1CCCO1` (stereo unspecified) has an AC40 of 0.63 µM.
`COc1ccc(S(=O)(=O)NCc2ccccn2)cc1NC(=O)c1ccc(C)cc1` gave an AC40 of 7.81 µM.
In the case of `C[C@H]1CN([C@@H](C)CO)C(=O)Cc2cc(N(C)C)ccc2O[C@@H]1CN(C)Cc1ccc(C(=O)Nc2ccccc2N)cc1`, the AC40 is reported as 25.7 µM.
In the case of `CCOc1ccc(S(=O)(=O)Nc2cccc(Cl)c2)cc1`, the AC40 is reported as 3.84 µM.
Work on `Cc1ccc(S(=O)(=O)Nc2ccc3nc(N)sc3c2)cc1` yielded an AC40 of 2 µM.
In the case of `CCc1ccc(-c2cc(C)no2)cc1S(=O)(=O)Nc1ccc(C)cn1`, the AC40 is reported as 2.33 µM.
For `Cc1ccc(C(=O)NCc2ccncc2)cc1S(=O)(=O)Nc1cccc(C)c1C`, the AC40 was 1.93 µM.
`O=C(Nc1ccc(S(=O)(=O)NCCc2ccccc2)cc1)c1ccco1` gave an AC40 of 2.02 µM.
Work on `CC(C)NC(=O)Nc1ccc2c(c1)CC(=O)N([C@H](C)CO)C[C@H](C)[C@H](CN(C)Cc1ccc(C(=O)Nc3ccccc3N)cc1)O2` yielded an AC40 of 14.2 µM.
Work on `Cc1ccc(-c2n[nH]c(=O)c3ccccc23)cc1S(=O)(=O)Nc1ccc(F)cc1` yielded an AC40 of 0.293 µM.
In the case of `Cc1cccc(NS(=O)(=O)c2ccc(-c3cnc(C4CC4)o3)cc2)c1`, the AC40 is reported as 2.13 µM.
In the case of `COc1ccc(NS(=O)(=O)c2cc(NC(=O)c3ccc(Cl)cc3)ccc2N2CCOCC2)cc1`, the AC40 is reported as under 0.26 µM.
`Cc1cc(C)c(S(=O)(=O)NCCn2ccc3ccccc32)c(C)c1` gave an AC40 of 1.93 µM.
In the case of `N#CC1c2ccccc2-c2ccccc2N1C(=O)c1ccccc1` (stereo unspecified), the AC40 is reported as 8.39 µM.
`O=S(=O)(/N=C(/Nc1ccc(Cl)c(S(=O)(=O)Nc2ccccc2Cl)c1)c1ccc(F)cc1)c1ccccc1` showed an AC40 of 26.8 µM.
Compound `C[C@H](CO)N1C[C@H](C)[C@H](CN(C)Cc2ccc(C(=O)Nc3ccccc3N)cc2)Oc2ccc(NS(=O)(=O)c3ccccc3)cc2CC1=O` has an AC40 of 3.45 µM.
`Cc1ccccc1S(=O)(=O)N1CC[C@@H]2[C@@H](CO)N(C)c3ccc(-c4ccccc4)cc3[C@@H]21` was tested, and the AC40 was 4.05 µM.
Work on `C[C@@H]1CN([C@H](C)CO)C(=O)c2cccc(NC(=O)C3CC3)c2O[C@H]1CN(C)Cc1ccc(C(F)(F)F)cc1` yielded an AC40 of 4.08 µM.
`Cc1ccc(N(CC(=O)NCc2cccs2)S(=O)(=O)c2cccs2)cc1` gave an AC40 of 29 µM.
In the case of `S=C(NCC1CCCCC1)Nc1ccc(Oc2ccccc2)cc1`, the AC40 is reported as 14.6 µM.
`C[C@H](CO)N1C[C@H](C)[C@H](CN(C)Cc2ccc(C(=O)Nc3ccccc3N)cc2)Oc2c(NS(=O)(=O)c3ccccc3)cccc2C1=O` was tested, and the AC40 was 16.1 µM.
In the case of `CC(C)Oc1ccc(C(=O)Nc2ccc(Cl)c(S(=O)(=O)Nc3ccc(Cl)cc3)c2)cc1`, the AC40 is reported as 0.559 µM.
Work on `O=C(CN1CCOCC1)Nc1ccc(Br)cc1C(=O)c1ccccc1` yielded an AC40 of 1.64 µM.
For `CCN1C(=O)c2cccc3c(S(=O)(=O)N(C(=O)c4cccnc4)c4ccc(OC)cc4)ccc1c23`, the AC40 was 1.21 µM.
`C[C@H](CO)N1C[C@H](C)[C@H](CN(C)Cc2ccc(C(=O)Nc3ccccc3N)cc2)Oc2ccc(NC(=O)Nc3cccc4ccccc34)cc2CC1=O` showed an AC40 of 16.9 µM.
Work on `CCN(CC)c1ccc(NC(=O)c2cnccn2)cc1S(=O)(=O)Nc1ccc(OC)cc1` yielded an AC40 of 0.976 µM.
With `OC(c1ccc(F)cc1)c1ncc(-c2ccccc2F)[nH]1` (stereo unspecified) the AC40 was 5.16 µM.
With `CN1CC(c2ccccc2Cl)C2(COc3ccccc3C2=O)C12C(=O)Nc1ccccc12` (stereo unspecified) the AC40 was 2.2 µM.
`CCOc1ccccc1N1CCN(C(=O)c2cc3ccccc3cc2OC)CC1` gave an AC40 of 4.78 µM.
In the case of `COc1ccc(S(=O)(=O)N2CC[C@@H]3[C@H](CO)N(C)c4ccc(-c5ccc(F)cc5)cc4[C@@H]32)cc1`, the AC40 is reported as 7.49 µM.
Work on `O=S(=O)(NCC1CCCO1)c1ccc(Cl)c(C(F)(F)F)c1` (stereo unspecified) yielded an AC40 of 7.84 µM.
In the case of `O=C(NC(=S)Nc1ccc(S(=O)(=O)NC2CCCCC2)cc1)c1cccs1`, the AC40 is reported as 0.715 µM.
For `CCCCCCNS(=O)(=O)c1ccc(OC)c(OC)c1`, the AC40 was 4.67 µM.
`COc1cccc(-c2ccc3c(c2)[C@H]2[C@H](CCN2S(=O)(=O)c2ccccc2C)[C@@H](CO)N3)c1` showed an AC40 of 14.3 µM.
`C[C@H](CO)N1C[C@H](C)[C@@H](CN(C)Cc2ccccc2)Oc2c(NS(=O)(=O)c3ccccc3)cccc2C1=O` was tested, and the AC40 was 3.64 µM.
With `O=C(N/N=C/c1cccs1)C(O)c1ccccc1` (stereo unspecified) the AC40 was 15.2 µM.
`CCN(CC)S(=O)(=O)c1ccc(NS(=O)(=O)c2ccc(C)c(C)c2)cc1` showed an AC40 of 11.3 µM.
Compound `CC(=O)N1c2c(cc(Br)cc2S(=O)(=O)NCc2ccccc2)CC1C` (stereo unspecified) has an AC40 of 5.96 µM.
`COc1ccc(S(=O)(=O)Nc2cc3c4c(c2)CCC(=O)N4CCC3)cc1C` gave an AC40 of 6.67 µM.
With `Cc1ccccc1OC1C(=O)N(Cc2ccc3c(c2)OCO3)C1c1sccc1C` (stereo unspecified) the AC40 was 13.7 µM.
`Cc1cc(C)c(S(=O)(=O)NCc2ccccn2)cc1C` was tested, and the AC40 was 9.76 µM.
Work on `COc1ccccc1N/C(=N/S(=O)(=O)c1ccc(C)cc1)c1ccccc1` yielded an AC40 of 9.99 µM.
`Cc1ccc(O)c(NC(=O)c2cccc(S(=O)(=O)N3CCCCC3)c2)c1` gave an AC40 of 2.39 µM.
`CCCCOC(=O)NC1CCc2cc(OC)c(OC)c(OC)c2-c2ccc(SC)c(=O)cc21` (stereo unspecified) gave an AC40 of 0.863 µM.
`Cc1cc(F)ccc1C(O)c1ncc(-c2ccccc2F)[nH]1` (stereo unspecified) was tested, and the AC40 was 5.29 µM.
Compound `Oc1ccc(/C=N/NP(=S)(c2ccccc2)c2ccccc2)cc1` has an AC40 of 7.07 µM.
`O=S(=O)(c1ccc(F)cc1)N1C[C@H]2[C@@H](c3ccccc31)[C@@H](CO)N2Cc1ccc2c(c1)OCO2` showed an AC40 of 4.82 µM.
With `CC(C)(C)c1cc(C(=O)NNc2cccc(Cl)c2)n(Cc2ccccc2)n1` the AC40 was 4.19 µM.
In the case of `COc1ccc(-c2nc3ccccn3c2NC2CCCCC2)cc1SC1CCCCC1`, the AC40 is reported as 7.13 µM.
Work on `COc1ccccc1NS(=O)(=O)c1cc(NC(=O)c2cccs2)ccc1N1CCOCC1` yielded an AC40 of 0.895 µM.
`COc1ccc(NS(=O)(=O)c2cc(NC(=O)c3ccc(=O)[nH]c3)ccc2N2CCCC2)cc1` gave an AC40 of 0.424 µM.
`CCn1c(=O)c2cc(S(=O)(=O)NC3CCCCC3)ccc2n(CC)c1=O` was tested, and the AC40 was 3.31 µM.
`CC(C)CNS(=O)(=O)c1ccc2c(c1)OCCO2` gave an AC40 of 5.9 µM.
Work on `CSc1nc(-c2ccc(C)cc2)[nH]c1S(=O)(=O)c1ccccc1` yielded an AC40 of 15.9 µM.
Work on `CC(=O)N1CC(C)Sc2ccc(S(=O)(=O)NCc3ccc(F)cc3)cc21` (stereo unspecified) yielded an AC40 of 4.49 µM.
Work on `Cc1cccc(NS(=O)(=O)c2ccc3c(c2)OCCO3)c1` yielded an AC40 of 1.57 µM.
For `CCc1ccc(-c2cc(C)no2)cc1S(=O)(=O)NCCc1ccc(S(N)(=O)=O)cc1`, the AC40 was 4.08 µM.
Compound `COc1ccc(NS(=O)(=O)c2ccc3ccccc3c2)c2ncccc12` has an AC40 of 5.19 µM.
`Cc1ccc(NS(=O)(=O)c2cc3c(cc2C)NC(=O)CO3)cc1` was tested, and the AC40 was 5.89 µM.
`Cc1ccc(NS(=O)(=O)c2cc(C(=O)NCCSc3ccc(C)cc3)ccc2C)cc1` showed an AC40 of 4.89 µM.
For `CC(=O)N1CCSc2ccc(S(=O)(=O)Nc3ccc(C)cc3)cc21`, the AC40 was 4.2 µM.
`CCOc1cc(C)c(C(C)C)cc1S(=O)(=O)NCc1ccccn1` gave an AC40 of 0.392 µM.
`CCOC(=O)c1cc(S(=O)(=O)Nc2cccc(OC)c2)cn1C` showed an AC40 of 1.84 µM.
`O=C(c1ccc(F)cc1)N1C[C@H]2[C@@H](c3ccccc31)[C@@H](CO)N2C(=O)c1ccccc1` was tested, and the AC40 was 17.6 µM.
`Cc1cc(C)cc(C(O)c2ncc(-c3ccccc3F)[nH]2)c1` (stereo unspecified) was tested, and the AC40 was 2.5 µM.
`CCOc1cc(S(=O)(=O)NCCc2ccccc2C)c(OCC)cc1-n1cnnn1` showed an AC40 of 2.52 µM.
`CCOC(=O)/C(=N/Nc1ccc(Cl)cc1)S(=O)(=O)c1ccccc1` showed an AC40 of 3.28 µM.
Compound `COc1ccc(C(=O)Nc2ccc(S(=O)(=O)NCc3ccco3)cc2)cc1OC` has an AC40 of 4.75 µM.
`C[C@@H]1CN([C@H](C)CO)C(=O)c2cccc(NS(C)(=O)=O)c2O[C@@H]1CN(C)Cc1ccc(C(F)(F)F)cc1` was tested, and the AC40 was 12.5 µM.
Work on `O=S(=O)(Nc1ccccc1)c1ccc(-c2cnc(C3CC3)o2)cc1` yielded an AC40 of 8.92 µM.
With `C[C@@H]1CN([C@@H](C)CO)C(=O)c2cccc(NS(=O)(=O)c3ccccc3)c2O[C@@H]1CN(C)Cc1ccc(C(=O)Nc2ccccc2N)cc1` the AC40 was 9.09 µM.
`O=S1(=O)CCC(NS(=O)(=O)c2ccc3ccccc3c2)C1` (stereo unspecified) was tested, and the AC40 was 13.4 µM.
For `CCc1ccc(NC(=O)Cc2cn(C)c3ccccc23)cc1`, the AC40 was 28.8 µM.
`O=S(=O)(NCCc1ccc(F)cc1)c1cc(C(F)(F)F)ccc1Br` gave an AC40 of under 0.26 µM.
Work on `O=S(=O)(NCCc1ccncc1)c1ccc(Br)cc1` yielded an AC40 of 1.15 µM.
`Cc1ccc(S(=O)(=O)Nc2ccc(-n3cnnn3)cc2)c(C)c1` was tested, and the AC40 was 0.759 µM.
`COc1ccc(C(=O)N2C[C@@H]3[C@H](c4ccccc42)[C@H](CO)N3Cc2ccc3c(c2)OCO3)cc1` showed an AC40 of 5.57 µM.
In the case of `COc1cccc(NS(=O)(=O)c2c(C)cc(C)cc2C)c1`, the AC40 is reported as 3.37 µM.
In the case of `C[C@@H]1CN([C@H](C)CO)C(=O)c2cc(NC(=O)c3ccncc3)ccc2O[C@@H]1CN(C)S(=O)(=O)c1ccc(Cl)cc1`, the AC40 is reported as 1.63 µM.
In the case of `Cc1c(C(=O)OC2CCCC2)[nH]c2c1C(=O)CC(c1ccco1)C2` (stereo unspecified), the AC40 is reported as 5.77 µM.
`COc1ccc(S(=O)(=O)Nc2ccc(F)cc2)c(C)c1C` gave an AC40 of 0.922 µM.
In the case of `CC(=O)c1ccc(NS(=O)(=O)c2c(C)cc(C)cc2C)cc1`, the AC40 is reported as 1.82 µM.
Work on `COc1ccccc1CN1[C@H](CO)[C@@H]2c3ccccc3N(C(=O)c3ccc(F)cc3)C[C@@H]21` yielded an AC40 of 30 µM.
`O=C1COc2ccc(S(=O)(=O)Nc3ccc(F)cc3)cc2N1` gave an AC40 of 5.23 µM.
Work on `COc1ccc(NS(=O)(=O)c2cccc(Cl)c2)cc1S(=O)(=O)N1CCCCC1` yielded an AC40 of 4.35 µM.
In the case of `COc1ccc(NS(=O)(=O)c2ccc(OC)c(OC)c2)cc1OC`, the AC40 is reported as 5.37 µM.
For `Nc1c(S(=O)(=O)c2cccs2)c2nc3ccccc3nc2n1Cc1ccccc1`, the AC40 was 1.86 µM.
Compound `COc1ccc(S(=O)(=O)N(CC(=O)Nc2cc(C)on2)Cc2ccccc2)cc1` has an AC40 of 21.3 µM.
Work on `CN1C(=O)c2cc(NC(=O)NCc3ccccc3)ccc2OC[C@@H]2O[C@H](CC(=O)NCC3CCCCC3)CC[C@@H]21` yielded an AC40 of 0.358 µM.
`CSc1cccc(NS(=O)(=O)c2cc(Br)cnc2N)c1` was tested, and the AC40 was 2.5 µM.
`COc1cccc(CC(=O)Nc2ccc(N3CCOCC3)c(S(=O)(=O)Nc3ccccc3OC)c2)c1` was tested, and the AC40 was 1.48 µM.
Compound `Cc1ccccc1NC(=O)c1ccc(NS(=O)(=O)c2cc(C(C)(C)C)cc(C)c2C)cc1` has an AC40 of under 0.26 µM.
`CCOc1ccc(Br)cc1S(=O)(=O)NC1CCCC1` was tested, and the AC40 was 1.29 µM.
`COc1ccc(OC)c(N(CC(=O)N2CCC(C)CC2)S(=O)(=O)c2ccccc2)c1` showed an AC40 of 4.36 µM.
Compound `COc1cc(NS(=O)(=O)c2ccc(OC)c(C)c2C)c(OC)cc1Cl` has an AC40 of 3.5 µM.
`O=C(Cc1ccccc1)N1C[C@H]2[C@@H](c3ccccc31)[C@@H](CO)N2C(=O)c1ccc(F)cc1` was tested, and the AC40 was 5.37 µM.
For `COc1cc(C)c(Cl)cc1S(=O)(=O)NCc1ccco1`, the AC40 was 1.18 µM.
For `CC(C)CCC(CC(C)O)C(=O)NNC(=S)Nc1ccccc1` (stereo unspecified), the AC40 was 9.74 µM.
Compound `COc1ccc(S(=O)(=O)N2CC[C@@H]3[C@@H](CO)N(C)c4ccc(-c5ccc(F)cc5)cc4[C@@H]32)cc1` has an AC40 of 6.93 µM.
Work on `c1ccc(CNc2nnnn2-c2ccccc2)cc1` yielded an AC40 of 17.1 µM.
